# Read-outs that look alike come from different tables or passages of the source.
# Experiments:
# [1] = biological target: α-glucosidase rat intestine enzyme; assay: α-Glucosidase inhibitory activity assay (rat intestinal acetone powder, maltose substrate); assay type: biochemical; settings: 10 mM maltose, pH 6.9, 37°C, 10 min, mean ± SD, triplicate
# Description: First, rat intestinal acetone powder (1 g) was suspended in 30 mL of normal saline. This suspended solution was sonicated for five minutes at 4°C. After centrifugation (12,000 rpm, 30 minutes, 4°C), the resulting supernatant was used for the assay. Briefly, a mixture of 10 μL samples, 30 μL of 0.1 M phosphate buffer (pH 6.9), 20 μL of 10 mM maltose, 80 μL glucose kit, and 20 μL of enzyme supernatant were incubated in 96-well plates at 37°C for 10 minutes. Acarbose was used as a standard. The absorbance was recorded at 490 nm by microplate reader (Biotek ELx800UV). The inhibitory activity was determined from the formula as follows:(2) Inhibition%=Ablank−Asample/Ablank×100 where Ablank = Aenzyme reaction − Ablank of enzyme reaction and Asample = Asample reaction − Ablank of sample reaction.
# [2] = DPPH radical scavenging assay; settings: 20 min, room temperature, 517 nm; mean ± SD, triplicate
# Description: First, DPPH solution (6 × 10^−5 M) was separated by dissolving 2.37 mg of DPPH in 100 mL of methanol to obtain a working solution. […] Finally, the mixed sample solution was incubated for 20 minutes at room temperature. Then, the absorbance (As) of the reaction mixture was measured by UV-Vis spectrophotometer at 517 nm. The mixed solution between methanol and the working solution was used as blank to give the blank absorbance (Ab). Gallic acid was used as a standard. The inhibitory activity was calculated by (1).
# [3] = ABTS radical cation scavenging assay; settings: for ABTS IC50: 4 min, room temperature, 734 nm, mean ± SD, triplicate; for IC50: same result expressed in μM
# Description: Free radical scavenging by ABTS radical was based on the method described previously by us. […] Those two solutions were mixed and incubated for 12-16 hours to obtain ABTS radical cation solution which is a dark blue solution. It was added with ± 274 mL of ethanol to give an absorbance of 0.7 ± 0.02 units at 734 nm for making a working solution. 1 mL of working solution was mixed with 10 μL of samples (n-hexane, dichloromethane, ethyl acetate, methanol, and water extracts) at maximum dissolved concentration in DMSO and mixed well. Finally, the mixed sample solution was incubated for four minutes at room temperature; then, the absorbance (As) of the reaction mixture was measured by UV-Vis spectrophotometers at 734 nm. The mixed solution between DMSO and the working solution was used as blank to give the blank absorbance (Ab). Trolox was used as a standard. […] The IC50 value was expressed as a quantity of an extract inhibitory concentration against a half of ABTS radicals.
# [4] = in vitro, C. odorata leaves; cited from earlier work
SMILES,α-Glucosidase inhibition IC50 [1],ABTS IC50 [3],IC50 [3],also measured
"C[C@H]1O[C@H](O[C@H]2[C@H](O)[C@@H](O)[C@@H](O[C@H]3[C@H](O)[C@@H](O)C(O)O[C@@H]3CO)O[C@@H]2CO)[C@H](O)[C@@H](O)[C@@H]1N[C@H]1C=C(CO)[C@@H](O)[C@H](O)[C@H]1O (some centres unmarked) [Acarbose, acarbose]",7.67 ± 1.86 µg/mL,–,–,–
"O=C(O)c1cc(O)c(O)c(O)c1 [Gallic acid, gallic acid]",–,–,–,DPPH IC50 [2]: 1.11 ± 0.42 µg/mL
"COc1cc(O)c2c(c1)OC(c1cc(O)ccc1OC)CC2=O (centres unmarked) [Odoratenin (1), 5,3'-dihydroxy-7,6'-dimethoxyflavanone]",>62.5 µg/mL,7.51 ± 1.57 µg/mL,23.7 µM,–
"Cc1c(C)c2c(c(C)c1O)CCC(C)(C(=O)O)O2 (centres unmarked) [Trolox, 6-hydroxy-2,5,7,8-tetramethylchromen-2-carboxylate acid]",–,7.84 ± 0.45 µg/mL,31.3 µM,–
O=C1O[C@H]([C@@H](O)CO)C(O)=C1O [ascorbic acid],–,–,–,ABTS IC50 [4]: 1000 µg/mL

# Source: paper PMC6604423, “A New Flavanone as a Potent Antioxidant Isolated from Chromolaena odorata L. Leaves” (Evidence-based Complementary and Alternative Medicine : eCAM, 2019)
